Results reported in the NIST ThermoML archive (doi:10.1016/j.jct.2004.06.009).

Test: molar heat capacity at constant pressure
Conditions: 101.33 kPa

CCC12CC3CC(CC(C3)C1)C2 [1-ethyladamantane]
Conditions | molar heat capacity at constant pressure [J/K/mol]
8.03 K, Crystal | 1.395
8.87 K, Crystal | 1.961
9.72 K, Crystal | 2.621
10.57 K, Crystal | 3.39
11.44 K, Crystal | 4.278
12.32 K, Crystal | 5.225
13.21 K, Crystal | 6.255
14.1 K, Crystal | 7.376
14.99 K, Crystal | 8.556
15.9 K, Crystal | 9.727
16.8 K, Crystal | 10.96
17.71 K, Crystal | 12.22
18.62 K, Crystal | 13.48
19.54 K, Crystal | 14.72
20.54 K, Crystal | 16.13
21.56 K, Crystal | 17.52
22.59 K, Crystal | 18.89
23.61 K, Crystal | 20.32
24.63 K, Crystal | 21.67
26.68 K, Crystal | 24.2
27.71 K, Crystal | 25.4
28.74 K, Crystal | 26.62
29.76 K, Crystal | 27.84
30.79 K, Crystal | 29.12
32.85 K, Crystal | 31.29
33.87 K, Crystal | 32.44
34.9 K, Crystal | 33.5
35.93 K, Crystal | 34.39
37.98 K, Crystal | 36.32
39.01 K, Crystal | 37.21
40.03 K, Crystal | 38.15
41.06 K, Crystal | 39
42.08 K, Crystal | 39.94
43.1 K, Crystal | 40.64
44.12 K, Crystal | 41.41
45.14 K, Crystal | 42.16
46.16 K, Crystal | 42.91
47.18 K, Crystal | 43.59
48.2 K, Crystal | 44.12
49.22 K, Crystal | 44.8
50.23 K, Crystal | 45.53
51.25 K, Crystal | 46
52.26 K, Crystal | 46.77
53.27 K, Crystal | 47.66
54.29 K, Crystal | 48.36
55.3 K, Crystal | 49.16
56.32 K, Crystal | 50.02
57.33 K, Crystal | 50.66
60.8 K, Crystal | 53.31
62.77 K, Crystal | 54.44
64.71 K, Crystal | 55.94
65.75 K, Crystal | 56.4
66.79 K, Crystal | 57.48
67.84 K, Crystal | 57.62
68.88 K, Crystal | 58.33
69.92 K, Crystal | 59.01
70.96 K, Crystal | 59.56
72 K, Crystal | 60.08
73.04 K, Crystal | 60.85
74.08 K, Crystal | 61.29
75.11 K, Crystal | 62.33
76.15 K, Crystal | 62.98
77.19 K, Crystal | 63.42
78.22 K, Crystal | 64.33
79.25 K, Crystal | 64.56
80.28 K, Crystal | 65.4
81.31 K, Crystal | 66.12
81.85 K, Crystal | 65.93
82.34 K, Crystal | 66.67
82.88 K, Crystal | 66.84
83.37 K, Crystal | 67.23
83.91 K, Crystal | 67.62
84.26 K, Crystal | 67.63
84.94 K, Crystal | 68.15
85.59 K, Crystal | 68.6
85.97 K, Crystal | 68.8
86.66 K, Crystal | 69.39
87 K, Crystal | 69.66
87.74 K, Crystal | 70.12
88.82 K, Crystal | 70.92
89.89 K, Crystal | 71.56
90.96 K, Crystal | 72.22
92.04 K, Crystal | 72.9
93.11 K, Crystal | 73.4
94.18 K, Crystal | 73.82
95.25 K, Crystal | 75.04
96.32 K, Crystal | 75.51
97.39 K, Crystal | 76.24
98.46 K, Crystal | 76.81
99.54 K, Crystal | 77.83
100.87 K, Crystal | 78.38
102.46 K, Crystal | 79.35
104.05 K, Crystal | 80.35
105.64 K, Crystal | 81.43
107.23 K, Crystal | 82.56
108.82 K, Crystal | 83.52
110.4 K, Crystal | 84.71
111.99 K, Crystal | 85.66
113.57 K, Crystal | 86.76
115.16 K, Crystal | 87.63
116.73 K, Crystal | 88.67
118.31 K, Crystal | 89.74
119.89 K, Crystal | 90.68
121.47 K, Crystal | 91.9
123.04 K, Crystal | 92.76
124.62 K, Crystal | 93.94
126.2 K, Crystal | 94.87
127.77 K, Crystal | 96.09
129.34 K, Crystal | 97.09
130.92 K, Crystal | 97.98
132.49 K, Crystal | 99.07
134.06 K, Crystal | 100.25
135.63 K, Crystal | 101.16
137.2 K, Crystal | 102.25
138.77 K, Crystal | 103.19
140.34 K, Crystal | 104.1
141.9 K, Crystal | 105.44
143.46 K, Crystal | 106.52
145.03 K, Crystal | 107.47
146.59 K, Crystal | 108.5
148.16 K, Crystal | 109.54
149.72 K, Crystal | 110.66
151.28 K, Crystal | 111.92
152.83 K, Crystal | 112.8
154.39 K, Crystal | 113.97
155.94 K, Crystal | 114.98
157.5 K, Crystal | 116.23
159.05 K, Crystal | 117.17
160.6 K, Crystal | 118.16
162.16 K, Crystal | 119.21
163.71 K, Crystal | 120.38
165.26 K, Crystal | 121.36
166.82 K, Crystal | 122.47
168.37 K, Crystal | 123.67
169.92 K, Crystal | 124.78
171.47 K, Crystal | 125.84
173.02 K, Crystal | 126.95
174.57 K, Crystal | 128.01
176.11 K, Crystal | 129.2
177.66 K, Crystal | 130.08
179.2 K, Crystal | 131.06
180.74 K, Crystal | 132.22
182.28 K, Crystal | 133.41
183.82 K, Crystal | 134.59
185.36 K, Crystal | 135.72
186.9 K, Crystal | 136.96
188.44 K, Crystal | 138.08
189.98 K, Crystal | 139.07
191.52 K, Crystal | 140.27
193.06 K, Crystal | 141.34
194.59 K, Crystal | 142.65
196.12 K, Crystal | 143.78
197.65 K, Crystal | 144.95
199.17 K, Crystal | 146.07
200.7 K, Crystal | 147.28
202.23 K, Crystal | 148.71
205.28 K, Crystal | 150.89
206.8 K, Crystal | 152.02
208.31 K, Crystal | 152.99
209.83 K, Crystal | 154.47
211.34 K, Crystal | 155.33
212.86 K, Crystal | 156.65
214.37 K, Crystal | 157.99
215.88 K, Crystal | 159.85
217.38 K, Crystal | 161.46
218.88 K, Crystal | 163.87
220.38 K, Crystal | 167.18
228.19 K, Liquid | 213.96
229.69 K, Liquid | 214.76
231.15 K, Liquid | 216.02
232.62 K, Liquid | 216.73
234.09 K, Liquid | 217.38
235.55 K, Liquid | 218.44
237.02 K, Liquid | 218.96
238.48 K, Liquid | 219.64
239.95 K, Liquid | 220.45
241.41 K, Liquid | 222.1
242.87 K, Liquid | 222.52
244.34 K, Liquid | 223.6
245.81 K, Liquid | 224.53
247.27 K, Liquid | 225.06
248.74 K, Liquid | 225.78
250.2 K, Liquid | 226.74
251.63 K, Liquid | 227.78
253.09 K, Liquid | 228.8
254.56 K, Liquid | 229.67
256.02 K, Liquid | 230.53
257.48 K, Liquid | 231.41
258.94 K, Liquid | 232.48
260.41 K, Liquid | 233.18
261.87 K, Liquid | 234.01
263.33 K, Liquid | 235.14
264.79 K, Liquid | 236.35
266.25 K, Liquid | 237.17
267.71 K, Liquid | 238.18
269.18 K, Liquid | 238.96
270.64 K, Liquid | 240.09
272.1 K, Liquid | 240.99
273.56 K, Liquid | 242.19
274.98 K, Liquid | 242.56
276.44 K, Liquid | 243.82
277.9 K, Liquid | 244.9
279.36 K, Liquid | 245.49
280.82 K, Liquid | 246.39
282.28 K, Liquid | 247.77
283.74 K, Liquid | 248.37
285.2 K, Liquid | 249.48
286.65 K, Liquid | 250.83
288.11 K, Liquid | 251.75
289.57 K, Liquid | 252.24
291.03 K, Liquid | 253.03
292.48 K, Liquid | 254.46
293.94 K, Liquid | 255.49
295.4 K, Liquid | 256.65
296.85 K, Liquid | 257.72
298.28 K, Liquid | 258.45
299.74 K, Liquid | 259.79
301.19 K, Liquid | 260.37
302.65 K, Liquid | 261.81
304.1 K, Liquid | 262.96
305.56 K, Liquid | 263.59
307.02 K, Liquid | 264.26
308.47 K, Liquid | 265.38
309.93 K, Liquid | 266.44
311.38 K, Liquid | 267.77
312.84 K, Liquid | 268.68
314.29 K, Liquid | 268.95
315.75 K, Liquid | 271
317.21 K, Liquid | 271.58
318.66 K, Liquid | 272.26
320.12 K, Liquid | 273.19
321.55 K, Liquid | 274.59
323 K, Liquid | 275.5
324.46 K, Liquid | 276.62
325.92 K, Liquid | 277.16
327.37 K, Liquid | 278.45
328.83 K, Liquid | 279.65
330.29 K, Liquid | 280.77
331.75 K, Liquid | 281.88
332.28 K, Liquid | 282.18
333.21 K, Liquid | 282.65
333.65 K, Liquid | 283.08
334.66 K, Liquid | 283.89
335.01 K, Liquid | 284.12
336.12 K, Liquid | 284.89
336.37 K, Liquid | 285.08
337.58 K, Liquid | 285.8
337.72 K, Liquid | 286.15
339.07 K, Liquid | 287.35
340.41 K, Liquid | 288.22
341.76 K, Liquid | 289.11
342.95 K, Liquid | 290.27
344.28 K, Liquid | 291.29
345.62 K, Liquid | 292.19
346.95 K, Liquid | 292.96
348.28 K, Liquid | 294.44
349.61 K, Liquid | 295.79
350.93 K, Liquid | 296.76
352.25 K, Liquid | 297.68
353.57 K, Liquid | 298.69
354.88 K, Liquid | 299.75
356.19 K, Liquid | 300.53
357.5 K, Liquid | 301.48
358.78 K, Liquid | 302.8
360.08 K, Liquid | 303.82
361.37 K, Liquid | 304.5
362.66 K, Liquid | 305.46
363.76 K, Liquid | 305.56
365.04 K, Liquid | 306.42
366.32 K, Liquid | 307.62
367.59 K, Liquid | 308.68
368.87 K, Liquid | 309.55
370.13 K, Liquid | 310.5
371.4 K, Liquid | 311.2
372.65 K, Liquid | 312.25
373.9 K, Liquid | 313.52
